# Reference: PMC4491176, “Caenorhabditis elegans is a useful model for anthelmintic discovery” (Nature Communications, 2015)
# Like-named read-outs stand apart in the source and are kept apart here.
# Tests used:
# [1] = test system: C. elegans N2; assay: 96-well liquid-based dose-response (in vivo LD100), wild-type worms; conditions: lowest concentration with no viable animals in four of four wells, 6 days after 20 L1 worms deposited
# Experimental: (§1) The 96-well liquid-based chemical screening assay was adapted from an established RNAi screening protocol. Briefly, saturated HB101 Escherichia coli culture was concentrated 2-fold using NGM (nematode growth media) containing 3 mg ml^−1 NaCl, 2.5 mg ml^−1 peptone, 5 μg ml^−1 cholesterol, 1 mM CaCl2, 1 mM MgSO4 and 25 mM KH2PO4. A total of 40 μl of NGM+HB101 was dispensed into each well of a 96-well plate, and chemicals were pinned into the wells using a pinning tool with a 300 nl slot volume (V&P Scientific). Approximately 20 synchronized first larval-stage (L1) worms, in 10 μl of M9 buffer (see ref. [24] for the recipe), were then added to each well. The synchronized L1s were obtained from an embryo preparation (see ref. [24] for the protocol) performed the previous day. The final concentration of dimethyl sulfoxide (DMSO) in the wells was 0.6% v/v. A dissection microscope was used to visualize the wells either 5 or 6 days post worm deposition and any obvious chemical-induced phenotypes were noted.
# (§2) The 96-well liquid-based assay was also used for all follow-up dose-response experiments in this work. These experiments were carried out in quadruplicate, and the total number of worms in each well was counted 6 days after worm deposition.
# [2] = target: wild-type C. elegans complex II (Caenorhabditis elegans, UniProt O62215+P41956+Q09508+Q09545); assay: biochemical; assay type: biochemical
# [3] = target: C. elegans complex II with SDHC-1(R74K) missense mutation (Caenorhabditis elegans, UniProt O62215+P41956+Q09508+Q09545, R74K); assay: Cell-free Complex II functional assay, mitochondria from wact-11-resistant mutants RP2674 and RP2698; assay type: biochemical
# [4] = test system: wact-11-family resistant C. elegans mutants (RP2674, RP2698 and others); assay: 96-well liquid-based dose-response (in vivo LD100), wact-11-family resistant mutants; conditions: for In vivo LD100: 6 days; for Resistance of wact-11-family resistant mutants to compound-induced lethality (in words): liquid dose-response of resistant mutants versus N2
# Experimental: as §1, §2
# [5] = test system: three nematode species, zebrafish and HEK cells; assay: Grouping by phylogenetic bioactivity profile (multi-organism screening pipeline); parameters: key: Group 1 molecules are lethal to only one or two of the three nematode species tested, but are non-lethal to zebrafish and HEK cells.; Group 2 molecules are lethal to all three nematode species, but are non-lethal to zebrafish and human cells.; Group 3 molecule are lethal to fish or HEK cells, regardless of their nematode bioactivity profile; conditions: nematode selectivity and cross-species lethality group
# Text: To further characterize our 275 C. elegans-lethal molecules, we organized them into three separate groups based on their phylogenetic bioactivity profiles (Fig. 2a). Group 1 contains 102 molecules that are lethal to only one or two of the three nematode species tested, but are non-lethal to zebrafish and HEK cells. Group 2 contains 67 compounds that are lethal to all three nematode species, but are non-lethal to zebrafish and human cells. Group 3 contains the remaining 106 compounds that are lethal to fish or HEK cells, and have varied bioactivity in different nematode species. In particular, the 67 molecules in group 2 represent potentially ideal anthelmintic leads; they have activity across multiple nematode species, and appear not to affect vertebrates.
# [6] = target: T1, Mouse complex II (Mus musculus, UniProt Q9CQA3+Q9CXV1+Q9CZB0); assay: Cell-free Complex II functional assay, mouse liver mitochondria; assay type: biochemical, M. musculus
# T1 construct: The livers from three 8–10-week-old C57Bl/6 female mice (Charles River) were removed; tissue Charles River (mice); host or cells: crude mitochondria from liver of C57Bl/6 female mice
# Experimental: The livers from three 8–10-week-old C57Bl/6 female mice (Charles River) were removed, collected in 1.5 ml microcentrifuge tubes, flash frozen in liquid nitrogen and stored at −80 °C until needed. Just before mitochondria isolation, the livers were weighed, placed into a 10-cm petri dish and 10 ml isolation buffer A was added per gram of liver tissue. The tissue was finely minced with a razor blade, transferred to a glass Dounce homogenizer and homogenized by 10 strokes on ice. The homogenate was centrifuged at 1,000g for 10 min at 4 °C. The supernatant was collected and centrifuged at 1,000g for 10 min at 4 °C. The supernatant was again collected and centrifuged at 16,000g for 10 min at 4 °C. The pellet was resuspended in 20 ml of isolation buffer B and centrifuged at 16,000g for 10 min at 4 °C. The pellet was resuspended in 20 ml of isolation buffer B, and 1 ml aliquots of the resuspension were distributed into 20 × 1.5 ml microcentrifuge tubes. The aliquoted resuspensions were centrifuged at 16,000g for 10 min at 4 °C. The supernatant was aspirated, the pellet was flash frozen in liquid nitrogen and stored frozen at −80 °C until needed. The mice used for experimentation were housed and used in accordance with ‘the use and care of experimental animals' guidelines. […]
# Mitochondrial pellets were thawed on ice and resuspended in 300 μl of cold isolation buffer B. Using the BCA assay, the protein concentration of the mitochondria suspension was determined and was subsequently diluted to a concentration of 0.2 mg ml^−1 with cold isolation buffer B. Complex II enzymatic assays were carried out in 96-well flat bottom plates. […] Absorbance for each well was measured at 600 nm using a SpectraMax Plus 384-well Microplate Reader, combined with SoftmaxPro software at 30-s intervals over a 35-min time period. Absorbance versus time was plotted for each well and enzyme activity was calculated as the slope of the line defined by the points ranging from 4 to 10 min. Per cent activity was calculated by dividing the enzyme activity of the chemical-treated wells by that of the DMSO control wells. […]
# [7] = test system: complex II from the parasitic nematode Ascaris suum; parameters: method as in PMID 19724139, PMID 23333273; conditions: cited from earlier work
# [8] = C. elegans, strain N2, SDHC residue change none, read-out: In vitro Complex II IC50
# [9] = C. elegans strain RP2674 (SDHC R74K)
# [10] = C. elegans strain RP2698 (SDHC R74K)
# [11] = M. musculus, C57Bl/6 liver mitochondria, read-out: In vitro Complex II IC50
# [12] = read-out: In vitro Complex II IC50, C. elegans, strain RP2674, SDHC R74K
# [13] = read-out: In vitro Complex II IC50, C. elegans, strain RP2698, SDHC R74K
# T1 sequence (Q9CZB0 30-169): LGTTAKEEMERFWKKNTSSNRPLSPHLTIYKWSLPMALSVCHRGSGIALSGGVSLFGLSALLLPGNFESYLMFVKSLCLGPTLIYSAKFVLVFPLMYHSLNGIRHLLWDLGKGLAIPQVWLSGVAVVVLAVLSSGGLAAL
# T1 sequence (Q9CQA3 31-282): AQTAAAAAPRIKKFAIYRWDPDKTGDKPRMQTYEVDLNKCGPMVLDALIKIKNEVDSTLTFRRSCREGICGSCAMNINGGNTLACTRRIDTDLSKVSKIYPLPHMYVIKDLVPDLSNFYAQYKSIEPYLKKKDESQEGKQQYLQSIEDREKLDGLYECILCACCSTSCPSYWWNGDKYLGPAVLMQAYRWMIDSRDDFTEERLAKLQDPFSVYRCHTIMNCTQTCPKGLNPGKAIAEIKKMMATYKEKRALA
# T1 sequence (Q9CXV1 57-159): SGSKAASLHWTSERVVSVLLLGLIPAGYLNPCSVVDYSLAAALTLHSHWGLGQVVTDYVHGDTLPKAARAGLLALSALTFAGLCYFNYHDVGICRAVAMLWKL
# T1 sequence (Q8K2B3 43-664 partner): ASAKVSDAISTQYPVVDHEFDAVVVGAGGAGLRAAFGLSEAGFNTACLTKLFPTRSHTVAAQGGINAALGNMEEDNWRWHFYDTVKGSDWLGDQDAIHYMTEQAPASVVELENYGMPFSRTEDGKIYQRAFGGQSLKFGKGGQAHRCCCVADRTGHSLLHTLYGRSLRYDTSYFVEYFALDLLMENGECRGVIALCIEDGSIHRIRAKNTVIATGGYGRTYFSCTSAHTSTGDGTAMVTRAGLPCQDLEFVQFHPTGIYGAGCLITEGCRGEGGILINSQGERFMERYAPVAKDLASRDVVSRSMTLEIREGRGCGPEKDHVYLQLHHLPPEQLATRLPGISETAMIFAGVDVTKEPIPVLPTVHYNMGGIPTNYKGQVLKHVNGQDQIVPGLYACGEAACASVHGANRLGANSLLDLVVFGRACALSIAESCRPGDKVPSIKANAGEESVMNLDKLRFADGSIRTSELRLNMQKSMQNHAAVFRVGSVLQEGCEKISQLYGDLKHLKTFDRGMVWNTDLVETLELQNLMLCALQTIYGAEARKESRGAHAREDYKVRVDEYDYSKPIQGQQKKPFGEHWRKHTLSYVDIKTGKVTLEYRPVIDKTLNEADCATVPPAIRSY
# Sequence of C. elegans complex II with SDHC-1(R74K) missense mutation (O62215 whole entry): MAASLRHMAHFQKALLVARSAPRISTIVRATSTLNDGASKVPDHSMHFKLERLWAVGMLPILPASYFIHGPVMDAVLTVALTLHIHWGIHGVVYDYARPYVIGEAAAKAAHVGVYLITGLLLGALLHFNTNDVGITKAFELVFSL
# Sequence of C. elegans complex II with SDHC-1(R74K) missense mutation (P41956 whole entry R74K): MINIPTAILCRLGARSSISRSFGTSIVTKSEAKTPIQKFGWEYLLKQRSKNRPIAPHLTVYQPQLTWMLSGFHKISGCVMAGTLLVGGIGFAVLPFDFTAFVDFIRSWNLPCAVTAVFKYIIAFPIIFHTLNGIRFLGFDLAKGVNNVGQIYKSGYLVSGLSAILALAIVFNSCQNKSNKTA
# Sequence of C. elegans complex II with SDHC-1(R74K) missense mutation (Q09508 32-646): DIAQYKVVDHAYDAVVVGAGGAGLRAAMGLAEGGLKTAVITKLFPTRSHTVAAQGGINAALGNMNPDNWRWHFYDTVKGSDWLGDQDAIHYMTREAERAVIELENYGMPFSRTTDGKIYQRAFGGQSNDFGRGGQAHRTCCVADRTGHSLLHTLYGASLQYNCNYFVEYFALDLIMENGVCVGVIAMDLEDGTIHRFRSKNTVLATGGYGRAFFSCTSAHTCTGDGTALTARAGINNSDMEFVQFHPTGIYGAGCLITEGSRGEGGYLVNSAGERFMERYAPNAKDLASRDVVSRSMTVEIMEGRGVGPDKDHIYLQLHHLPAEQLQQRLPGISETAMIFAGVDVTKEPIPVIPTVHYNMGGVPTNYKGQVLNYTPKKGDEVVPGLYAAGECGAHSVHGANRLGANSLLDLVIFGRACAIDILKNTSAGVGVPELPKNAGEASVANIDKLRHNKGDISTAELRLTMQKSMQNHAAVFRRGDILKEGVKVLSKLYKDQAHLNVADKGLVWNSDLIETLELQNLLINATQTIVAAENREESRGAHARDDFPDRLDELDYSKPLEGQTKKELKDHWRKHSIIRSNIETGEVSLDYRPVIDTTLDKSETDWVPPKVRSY
# Sequence of C. elegans complex II with SDHC-1(R74K) missense mutation (Q09545 whole entry): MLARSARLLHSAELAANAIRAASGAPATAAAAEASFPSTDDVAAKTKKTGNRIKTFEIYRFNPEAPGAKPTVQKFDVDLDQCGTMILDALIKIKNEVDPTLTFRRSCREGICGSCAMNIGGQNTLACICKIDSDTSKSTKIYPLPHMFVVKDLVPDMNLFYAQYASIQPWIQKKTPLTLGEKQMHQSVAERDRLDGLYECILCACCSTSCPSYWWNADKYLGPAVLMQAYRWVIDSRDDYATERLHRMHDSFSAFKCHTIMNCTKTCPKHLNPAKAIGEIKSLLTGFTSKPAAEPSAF
# Sequence of wild-type C. elegans complex II (O62215 whole entry): as the sequence (O62215 whole entry) above
# Sequence of wild-type C. elegans complex II (Q09545 whole entry): as the sequence (Q09545 whole entry) above
# Sequence of wild-type C. elegans complex II (Q09508 32-646): as the sequence (Q09508 32-646) above
# Sequence of wild-type C. elegans complex II (P41956 whole entry): as the sequence (P41956 whole entry R74K) above, with K74R counted along it
smiles,measurement,setting,value
"C/C=C/CC(C)C(=O)c1c(O)c(OC)c(OC)[nH]c1=O (stereo not shown) [Harz, harzianopyridone]",In vivo LD100,[1],>120 µM
same,IC50,[2]; [8],> 10 µM
"O=C([O-])CC(=O)[O-].[Na+].[Na+] [Malonate, disodium malonate]",In vivo LD100,[1],>120 µM
same,IC50,[2]; [8],4900 µM
same,IC50,"[3]; C. elegans, strain RP2674, SDHC R74K, read-out: In vitro Complex II IC50",4200 µM
same,IC50,"[3]; C. elegans, strain RP2698, SDHC R74K, read-out: In vitro Complex II IC50",4200 µM
Cc1occc1C(=O)Nc1ccccc1 [Fenfuran],In vivo LD100,[1],>120 µM
same,IC50,[2],5.28 µM
O=C(NCCc1ccc(Cl)cc1)c1ccccc1C(F)(F)F [wact-11],In vivo LD100,[1],7.5 µM
same,IC50,[2],0.0074 µM
same,In vivo LD100,[4]; [9],>120 µM
same,In vivo LD100,[4]; [10],>120 µM
same,Resistance of wact-11-family resistant mutants to compound-induced lethality (in words),[4],at least some resistance
same,Group # (Bioactivity Group #),[5],2
same,IC50,[6]; [11],> 10 µM
same,IC50,[3],> 10 µM
same,IC50,[3]; [12],> 10 µM
same,IC50,[3]; [13],> 10 µM
O=C(Nc1ccccc1-c1ccc(Cl)cc1)c1cccnc1Cl [Boscalid],In vivo LD100,[1],>120 µM
same,IC50,[2],0.549 µM
O=C(Nc1ccccc1)c1ccccc1I [Benodanil],In vivo LD100,[1],120 µM
same,IC50,[2],0.186 µM
same,Resistance of wact-11-family resistant mutants to compound-induced lethality (in words),[4],resist the lethality
COc1[nH]c(=O)c(C(=O)[C@@H](C)C[C@H](C)[C@@H](Cl)CCl)c(O)c1OC [Atpenin A5],In vivo LD100,[1],>120 µM
same,IC50,[6],0.593 µM
Cc1nc(C(F)(F)F)c(C(=O)Nc2c(Br)cc(OC(F)(F)F)cc2Br)s1 [Thifluzamide],In vivo LD100,[1],>120 µM
same,IC50,[2],3.82 µM
CC(C)Oc1cccc(NC(=O)c2ccccc2C(F)(F)F)c1 [Flutolanil],In vivo LD100,[1],>120 µM
same,IC50,[2],0.311 µM
same,Inhibition of Ascaris suum complex II in vitro (in words),[7],inhibit
Cc1ccc(SCCNC(=O)c2ccccc2I)cc1 [wact-12c],In vivo LD100,[1],>120 µM
same,IC50,[2]; [8],0.133 µM
CC1=C(C(=O)Nc2ccccc2)SCCO1 [Carboxine],In vivo LD100,[1],>120 µM
same,IC50,[2],> 10 µM
O=C(NCCc1ncc(C(F)(F)F)cc1Cl)c1ccccc1C(F)(F)F [Fluopyram],In vivo LD100,[1],0.469 µM
same,IC50,[2],0.0018 µM
same,Less inhibiting than wact-11 f and wact-11 m,[2]; C. elegans N2 complex II IC50,~2 fold
same,Resistance of wact-11-family resistant mutants to compound-induced lethality (in words),[4],resist the lethality
CCCCCNC(=O)c1ccccc1SC [wact-127],Group # (Bioactivity Group #),[5],2
CC1=NS(=O)(=O)c2cc(Cl)ccc2N1 [Diazoxide],In vivo LD100,[1],>120 µM
same,IC50,[2],> 10 µM
"O=C(CC(=O)C(F)(F)F)c1cccs1 [TTFA, thenoyltrifluoroacetone]",In vivo LD100,[1],>120 µM
same,IC50,[2]; [8],> 10 µM
CCc1ccc(OCCNC(=O)c2ccccc2I)cc1 [wact-12],In vivo LD100,[1],7.5 µM
same,IC50,[2],0.0057 µM
same,In vivo LD100,[4]; [9],>120 µM
same,In vivo LD100,[4]; [10],>120 µM
same,Group # (Bioactivity Group #),[5],2
same,IC50,[6]; [11],> 10 µM
same,IC50,[3],> 10 µM
same,IC50,[3]; [12],> 10 µM
same,IC50,[3]; [13],> 10 µM
